Columns and labels:
Format in all cases: in vivo
Lolium perenne (LOLPE) [1] = assay: Test 1A glasshouse assay, post-emergence herbicidal activity; details: Lolium perenne, 312 h, application rate 250 g/ha, 13 days after application, visual (100%=total damage; 0%=no damage), read-out: Post-emergence Herbicidal Activity (% Phytotoxicity) LOLPE
In short: (§1)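 Read-out is visual percent phytotoxicity 13 days post-spray, 100% meaning total plant damage and 0% none. Seedlings were treated after 8 days' glasshouse cultivation with an aqueous spray of active ingredient in acetone/water 50:50 plus 0.5% Tween 20.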

Avena fatua (AVEFA) [2] = assay: as above; details: Avena fatua, 312 h, application rate 250 g/ha, 13 days after application, visual (100%=total damage; 0%=no damage), read-out: Post-emergence Herbicidal Activity (% Phytotoxicity) AVEFA
In short: as §1

[3] = system: Alopecurus myosuroides (ALOMY); assay: as above; details: Alopecurus myosuroides, 312 h, application rate 250 g/ha, 13 days after application, visual (100%=total damage; 0%=no damage), read-out: Post-emergence Herbicidal Activity (% Phytotoxicity) ALOMY
In short: as §1

[4] = system: Echinochloa crus-galli (ECHCG); assay: as above; details: Echinochloa crus-galli, 312 h, application rate 250 g/ha, 13 days after application, visual (100%=total damage; 0%=no damage), read-out: Post-emergence Herbicidal Activity (% Phytotoxicity) ECHCG
In short: as §1

Lolium perenne (LOLPE) [5] = assay: Test 1A glasshouse assay, pre-emergence herbicidal activity; details: 312 h, 1000 g/ha, 13 days after application, read-out: Pre-emergence herbicidal activity (% phytotoxicity) LOLPE
Description: (§2) Seeds of a variety of test species were sown in standard soil in pots. After cultivation for one day (pre-emergence) or after 8 days cultivation (post-emergence) under controlled conditions in a glasshouse (at 24/16° C., day/night; 14 hours light; 65% humidity), the plants were sprayed with an aqueous spray solution derived from the formulation of the technical active ingredient in acetone/water (50:50) solution containing 0.5% Tween 20 (polyoxyethelyene sorbitan monolaurate, CAS RN 9005-64-5). The test plants were then grown under controlled conditions in a glasshouse (at 24/16° C., day/night; 14 hours light; 65% humidity) and watered twice daily. 13 days after application of the test herbicide, for pre- and post-emergence, the test was evaluated visually for percentage phytotoxicity to the plant (where 100%=total damage to plant; 0%=no damage to plant).
(§3) Test plants: Lolium perenne (LOLPE), Alopecurus myosuroides (ALOMY), Echinochloa crus-galli (ECHCG), and Avena fatua (AVEFA); these are all grassy monocotyledonous weeds.

Avena fatua (AVEFA) [6] = assay: as above; details: 312 h, 1000 g/ha, 13 days after application, read-out: Pre-emergence herbicidal activity (% phytotoxicity) AVEFA
Description: as §2, §3

[7] = system: Alopecurus myosuroides (ALOMY); assay: as above; details: 312 h, 1000 g/ha, 13 days after application, read-out: Pre-emergence herbicidal activity (% phytotoxicity) ALOMY
Description: as §2, §3

[8] = system: Echinochloa crus-galli (ECHCG); assay: as above; details: 312 h, 1000 g/ha, 13 days after application, read-out: Pre-emergence herbicidal activity (% phytotoxicity) ECHCG
Description: as §2, §3

Poa annua (POAAN) = assay: Test 1B glasshouse assay, post-emergence herbicidal activity against grassy weeds; details: 14 DAA
Description: (§4) Biological Example 1B tests the herbicidal activity of“technical” compounds (i.e. compounds not previously formulated before the test), as the herbicides under test.
(§5) An “instant formulation”, known as the “IF50”, containing 50 g/liter (i.e. 5% w/v) of the “technical” (i.e. unformulated) active ingredient (i.e. the herbicide under test), is prepared by dissolving the active ingredient in a mixture of organic solvents and emulsifier, details of which are provided in the Table below.
(§6) This IF50 is mixed with a small, variable amount of acetone to aid dissolution, before addition of a 0.5% v/v aqueous solution of the adjuvant Adigor™ (an adjuvant containing rapeseed oil methyl ester, ethoxylated alcohols, and a mixture of heavy aromatic hydrocarbons, e.g. available from Syngenta), as the aqueous diluent, to form an aqueous spray solution which contains a predetermined concentration of the active ingredient (which varies depending on the application rate of the active ingredient to the plants) and 0.5% v/v of the adjuvant Adigor™. This aqueous spray solution is suitable for spraying onto plants.
(§7) Seeds of a variety of test species are sown in standard soil in pots. After cultivation for 14 days under controlled conditions in a glasshouse (at 22/16° C., day/night; 16 hours light; 65% humidity), the plants are sprayed post-emergence with the above-mentioned aqueous spray solution containing inter alia the “technical” active ingredient (i.e. the herbicide under test) and the adjuvant Adigor™.
(§8) The test plants are then grown on under controlled conditions in the glasshouse (at 22/16° C., day/night; 16 hours light; 65% humidity) and are watered twice daily. 14 days after application of the test herbicide, the test is evaluated visually for percentage phytotoxicity to the plant (where 100%=total damage to plant; 0%=no damage to plant).
(§9) More specifically, post-emergence herbicidal activity (phytotoxicity) data, on certain tested grassy monocotyledonous weeds (and/or plants of the type Gramineae) and cereal crops in the glasshouse, are measured 14 days after application of the herbicide (14 DAA), typically for inter alia one or more of the following application rates: • (a) a post-emergence application rate of 60 g/ha of the test herbicide with or without 50 g/ha of cloquintocet-mexyl safener, and • (b) a post-emergence application rate of 90 g/ha of the test herbicide with 50 g/ha of cloquintocet-mexyl safener, and • (c) a post-emergence application rate of 120 g/ha of the test herbicide with 50 g/ha of cloquintocet-mexyl safener.
(§10) The cloquintocet-mexyl, when used, is present in the formulation containing the herbicide under test dissolved in acetone plus IF50.
(§11) The range of herbicide application rates tested sometimes includes application rates other than those shown above, and the rates can vary depending on the herbicide under test.
(§12) Herbicidal activity (phytotoxicity) is evaluated visually, and an assessed percentage phytotoxicity score is given for each herbicidal application on each plant species (with 100%=total damage to plant; 0%=no damage to plant; the assessment is recorded in increments of 1%). Two replicates are made for each experiment, and the mean herbicidal activity (phytotoxicity) data is reported.
(§13) For compounds A34, A98, A99, A87, A100, A101, A89, A120, A120A, A120B, A23, A127, A128, A89, A112 and A113 the tested weeds were as follows: Avena fatua (AVEFA), Lolium multiflorum (LOLMU), Setaria viridis (SETVI), Poa annua (POAAN), Alopecurus myosuroides (ALOMY). All five of these are grassy monocotyledonous weeds. Except for SETVI, these are all “cool-season” grassy monocotyledonous weeds.

Avena fatua (AVEFA) [9] = assay: as above; details: 14 DAA
Description: as §4, §5, §6, §7, §8, §9, §10, §11, §12, §13

[10] = system: Lolium multiflorum (LOLMU); assay: as above; details: 14 DAA
Description: as §4, §5, §6, §7, §8, §9, §10, §11, §12, §13

[11] = system: Alopecurus myosuroides (ALOMY); assay: as above; details: 14 DAA
Description: as §4, §5, §6, §7, §8, §9, §10, §11, §12, §13

Setaria viridis (SETVI) = assay: as above; details: 14 DAA
Description: as §4, §5, §6, §7, §8, §9, §10, §11, §12, §13

Spring Wheat “Freya” = assay: Test 1B glasshouse assay, post-emergence herbicidal activity against cereal crops
[12] = system: Spring Barley “Harrington”; assay: as above
Description: as §4, §5, §6, §7, §8, §9, §10, §11, §12

Winter Wheat “Hereward” = assay: as above
Description: as §4, §5, §6, §7, §8, §9, §10, §11, §12

Winter Barley “Suzuka” = assay: as above
Description: as §4, §5, §6, §7, §8, §9, §10, §11, §12

[13] = 30 g/ha herbicide, 50 g/ha cloquintocet-mexyl
[14] = 45 g/ha herbicide, 50 g/ha cloquintocet-mexyl
[15] = 60 g/ha herbicide, 0 g/ha cloquintocet-mexyl
[16] = 60 g/ha herbicide, 50 g/ha cloquintocet-mexyl
[17] = herbicide 30 g/ha, cloquintocet-mexyl 50 g/ha
[18] = herbicide 45 g/ha, cloquintocet-mexyl 50 g/ha
[19] = herbicide 60 g/ha, cloquintocet-mexyl 0 g/ha
[20] = herbicide 60 g/ha, cloquintocet-mexyl 50 g/ha

Structure (SMILES) | Post-emergence herbicidal activity, percentage phytotoxicity, POAAN (Poa annua (POAAN); [13]) | Post-emergence herbicidal activity, percentage phytotoxicity, POAAN (Poa annua (POAAN); [14]) | Post-emergence herbicidal activity, percentage phytotoxicity, POAAN (Poa annua (POAAN); [15]) | Post-emergence herbicidal activity, percentage phytotoxicity, POAAN (Poa annua (POAAN); [16]) | Post-emergence herbicidal activity, percentage phytotoxicity, AVEFA (Avena fatua (AVEFA) [9]; [13]) | Post-emergence herbicidal activity, percentage phytotoxicity, AVEFA (Avena fatua (AVEFA) [9]; [14]) | Post-emergence herbicidal activity, percentage phytotoxicity, AVEFA (Avena fatua (AVEFA) [9]; [15]) | Post-emergence herbicidal activity, percentage phytotoxicity, AVEFA (Avena fatua (AVEFA) [9]; [16]) | Post-emergence herbicidal activity, percentage phytotoxicity, LOLMU [10, 13] | Post-emergence herbicidal activity, percentage phytotoxicity, LOLMU [10, 14] | Post-emergence herbicidal activity, percentage phytotoxicity, LOLMU [10, 15] | Post-emergence herbicidal activity, percentage phytotoxicity, LOLMU [10, 16] | Post-emergence herbicidal activity, percentage phytotoxicity, ALOMY [11, 13] | Post-emergence herbicidal activity, percentage phytotoxicity, ALOMY [11, 14] | Post-emergence herbicidal activity, percentage phytotoxicity, ALOMY [11, 15] | Post-emergence herbicidal activity, percentage phytotoxicity, ALOMY [11, 16] | Post-emergence herbicidal activity, percentage phytotoxicity, SETVI (Setaria viridis (SETVI); [13]) | Post-emergence herbicidal activity, percentage phytotoxicity, SETVI (Setaria viridis (SETVI); [14]) | Post-emergence herbicidal activity, percentage phytotoxicity, SETVI (Setaria viridis (SETVI); [15]) | Post-emergence herbicidal activity, percentage phytotoxicity, SETVI (Setaria viridis (SETVI); [16]) | also measured
Cc1cc(C)c(C2C(=O)CC(CCNC(=O)c3ccccc3)C2=O)c(C)c1 (centres unmarked) [Compound A1, N-[2-[2,4-dioxo-3-(2,4,6-trimethylphenyl)cyclopentyl]ethyl]-benzamide] |  |  |  |  |  |  |  |  |  |  |  |  |  |  |  |  |  |  |  |  | pest or weed control at 250 g/ha (Lolium perenne (LOLPE) [1]): 100%; pest or weed control at 250 g/ha (Avena fatua (AVEFA) [2]): 90%; pest or weed control at 250 g/ha [3]: 80%; pest or weed control at 250 g/ha [4]: 100%; inhibition at 1000 g/ha (Lolium perenne (LOLPE) [5]): 100%; inhibition at 1000 g/ha (Avena fatua (AVEFA) [6]): 70%; inhibition at 1000 g/ha [7]: 90%; inhibition at 1000 g/ha [8]: 100%
Cc1cc(C)c(C2C(=O)C[C@@H](CCNC(=O)c3cc(Cl)ccn3)C2=O)c(C)c1 (some centres unmarked) [Compound A127] | 0% | 0% | 0% | 0% | 55% | 80% | 85% | 90% | 65% | 83% | 97% | 83% | 48% | 63% | 78% | 68% | 97% | 99% | 100% | 100% | Percentage Phytotoxicity Spring Wheat “Freya” (Spring Wheat “Freya”; [17]): 0%; Percentage Phytotoxicity Spring Wheat “Freya” (Spring Wheat “Freya”; [18]): 3%; Percentage Phytotoxicity Spring Wheat “Freya” (Spring Wheat “Freya”; [19]): 70%; Percentage Phytotoxicity Spring Wheat “Freya” (Spring Wheat “Freya”; [20]): 5%; Percentage Phytotoxicity Spring Barley “Harrington” [12, 17]: 0%; Percentage Phytotoxicity Spring Barley “Harrington” [12, 18]: 0%; Percentage Phytotoxicity Spring Barley “Harrington” [12, 19]: 83%; Percentage Phytotoxicity Spring Barley “Harrington” [12, 20]: 8%; Percentage Phytotoxicity Winter Wheat “Hereward” (Winter Wheat “Hereward”; [17]): 0%; Percentage Phytotoxicity Winter Wheat “Hereward” (Winter Wheat “Hereward”; [18]): 0%; Percentage Phytotoxicity Winter Wheat “Hereward” (Winter Wheat “Hereward”; [19]): 65%; Percentage Phytotoxicity Winter Wheat “Hereward” (Winter Wheat “Hereward”; [20]): 5%; Percentage Phytotoxicity Winter Barley “Suzuka” (Winter Barley “Suzuka”; [17]): 0%; Percentage Phytotoxicity Winter Barley “Suzuka” (Winter Barley “Suzuka”; [18]): 0%; Percentage Phytotoxicity Winter Barley “Suzuka” (Winter Barley “Suzuka”; [19]): 85%; Percentage Phytotoxicity Winter Barley “Suzuka” (Winter Barley “Suzuka”; [20]): 5%
Cc1cc(C)c(C2C(=O)C[C@H](CCNC(=O)c3cc(Cl)ccn3)C2=O)c(C)c1 (some centres unmarked) [Compound A128] | 0% | 0% | 5% | 0% | 0% | 3% | 18% | 10% | 43% | 63% | 85% | 78% | 3% | 25% | 48% | 35% | 23% | 43% | 55% | 63% | Percentage Phytotoxicity Spring Wheat “Freya” (Spring Wheat “Freya”; [17]): 3%; Percentage Phytotoxicity Spring Wheat “Freya” (Spring Wheat “Freya”; [18]): 0%; Percentage Phytotoxicity Spring Wheat “Freya” (Spring Wheat “Freya”; [19]): 7%; Percentage Phytotoxicity Spring Wheat “Freya” (Spring Wheat “Freya”; [20]): 3%; Percentage Phytotoxicity Spring Barley “Harrington” [12, 17]: 0%; Percentage Phytotoxicity Spring Barley “Harrington” [12, 18]: 0%; Percentage Phytotoxicity Spring Barley “Harrington” [12, 19]: 48%; Percentage Phytotoxicity Spring Barley “Harrington” [12, 20]: 0%; Percentage Phytotoxicity Winter Wheat “Hereward” (Winter Wheat “Hereward”; [17]): 0%; Percentage Phytotoxicity Winter Wheat “Hereward” (Winter Wheat “Hereward”; [18]): 0%; Percentage Phytotoxicity Winter Wheat “Hereward” (Winter Wheat “Hereward”; [19]): 8%; Percentage Phytotoxicity Winter Wheat “Hereward” (Winter Wheat “Hereward”; [20]): 0%; Percentage Phytotoxicity Winter Barley “Suzuka” (Winter Barley “Suzuka”; [17]): 0%; Percentage Phytotoxicity Winter Barley “Suzuka” (Winter Barley “Suzuka”; [18]): 0%; Percentage Phytotoxicity Winter Barley “Suzuka” (Winter Barley “Suzuka”; [19]): 18%; Percentage Phytotoxicity Winter Barley “Suzuka” (Winter Barley “Suzuka”; [20]): 0%
